Results reported in patent publication US9873699B1, “Anti-cancer agents” (KING SAUD UNIVERSITY, priority 2017, dated 2018).

These compounds were tested on FaDu hypopharyngeal tumor cells (assay: Cytotoxicity assay (MTT)). Conditions: 48 h.
Assay type: cell-based
Experimental: The synthesized series of compounds 4a-m stock solution were prepared by dissolved in DMSO (Sigma-Aldrich, St. Louis, Mo., USA) or dH2O. The stock solutions were diluted with cell culture medium and used as a working solution. Different concentration of working solution was exposed to 5 to 7×10^3 cells seeded 96 well plates after 24 h incubation. DMSO/dH2O was used as the solvent control. Nuclear morphological changes were monitored and photographed following treatment of synthesized compounds for 48 h using inverted microscope (Carl Zeiss, Jena, Germany). After incubation, plates were centrifuged and washed with cell culture medium. Subsequently, 20 μL of MTT solution [5 mg/mL in phosphate-buffered saline (PBS)] was added to each well, and the plates were protected from light and kept in CO2 incubator at 37° C. for 4 h. The purple color formazan product was formed and dissolved in 100 μL of DMSO. The absorbance was monitored at 570 nm (measurement) and 630 nm (reference) using a 96 well plate reader (Bio-Rad, Hercules, Calif., USA). Data were collected for four replicates each and used to calculate the median effect dose or concentration, i.e., IC50 using the Calcusyn software.
The cytotoxicity of synthesized compounds 4(a-m) on FaDu hypopharyngeal tumor cells was assessed for 48 h, in comparison with the commercial anti-cancer drug bleomycin under identical conditions (FIGS. 6&7). […] The percentage of apoptotic cells is indicated by the histograms and the data shown are the means from triplicates. Vertical bars represent standard error of the mean.

Question: With “5′-benzyl-4′-(4-bromopheynyl)-5-spiro[3,2′]oxindolopyrrolidino-4′-(4-bromophenyl-1″-styryl-5-benzylidene-spiro[3′.3″]piperidi-4″-one [Compound 4c]” as the compound, how does the “cytotoxicity against cancer cells (in words)” value (“cytotoxicity” for short) read?
Answer: good cytotoxicity

Question: With Cc1cccc(C=C2CN(C=Cc3ccccc3)CC3(C2=O)C(c2cccc(C)c2)C(Cc2ccccc2)NC32C(=O)Nc3ccccc32)c1 (stereo not drawn) [Compound 4h, 5′-benzyl-4′-(3-tolyl)-5-spiro[3,2′]oxindolopyrrolidino-4′-(3-methylphenyl)-1″-styryl-5-benzylidene-spiro[3′.3″]piperidi-4″-one] as the compound, how does the “cytotoxicity” value read?
Answer: good cytotoxicity

Question: Which “cytotoxicity” value does the source give for Cc1ccccc1C=C1CN(C=Cc2ccccc2)CC2(C1=O)C(c1ccccc1C)C(Cc1ccccc1)NC21C(=O)Nc2ccccc21 (stereo not drawn) [Compound 4g, 5′-benzyl-4′-(2-tolyl)-5-spiro[3,2′]oxindolopyrrolidino-4′-(2-methylphenyl)-1″-styryl-5-benzylidene-spiro[3′.3″]piperidi-4″-one] here?
Answer: excellent cytotoxic property

Question: Which “cytotoxicity” value does the source give for O=C1Nc2ccccc2C12NC(Cc1ccccc1)C(c1ccccc1Cl)C21CN(C=Cc2ccccc2)CC(=Cc2ccccc2Cl)C1=O (stereo not drawn) [Compound 4d] here?
Answer: good cytotoxicity

Question: “5′-benzyl-4′-(2,4-dichloropheynyl)-5-spiro[3,2′]oxindolopyrrolidino-4′-(2,4-dichlorophenyl-1″-styryl-5-benzylidene-spiro[3′.3″]piperidi-4″-one [Compound 4e]” was tested. Which “cytotoxicity” value did it give?
Answer: good cytotoxicity

Question: “5′-benzyl-5-spiro[3,2′]oxindolopyrrolidino-4′-(methylphenyl)-1″-styryl-5-benzylidene-spiro[3′.3″]piperidi-4″-one [Compound 4a]” was tested. Which “cytotoxicity” value did it give?
Answer: excellent cytotoxic property
